Source: US20090291977A1, “Chromane Derivatives Useful As Acid Pump Antagonists” (priority 2004, published 2009)

molecular target: T1, Porcine gastric H+/K+-ATPase (Sus scrofa, UniProt P19156); test: Ion-leaky porcine gastric H+/K+-ATPase inhibition; format: biochemical; conditions: ion-leaky vesicles, 5 mM KCl, pH 6.4, 37° C., 30 minutes
T1 construct: The gastric vesicles were collected from interface on 0.25 M sucrose layer containing 7% Ficoll; from tissue; host or cells: mucous membrane of fresh porcine stomachs (gastric vesicles)
T1 sequence (P19156 2-1034 limits assumed): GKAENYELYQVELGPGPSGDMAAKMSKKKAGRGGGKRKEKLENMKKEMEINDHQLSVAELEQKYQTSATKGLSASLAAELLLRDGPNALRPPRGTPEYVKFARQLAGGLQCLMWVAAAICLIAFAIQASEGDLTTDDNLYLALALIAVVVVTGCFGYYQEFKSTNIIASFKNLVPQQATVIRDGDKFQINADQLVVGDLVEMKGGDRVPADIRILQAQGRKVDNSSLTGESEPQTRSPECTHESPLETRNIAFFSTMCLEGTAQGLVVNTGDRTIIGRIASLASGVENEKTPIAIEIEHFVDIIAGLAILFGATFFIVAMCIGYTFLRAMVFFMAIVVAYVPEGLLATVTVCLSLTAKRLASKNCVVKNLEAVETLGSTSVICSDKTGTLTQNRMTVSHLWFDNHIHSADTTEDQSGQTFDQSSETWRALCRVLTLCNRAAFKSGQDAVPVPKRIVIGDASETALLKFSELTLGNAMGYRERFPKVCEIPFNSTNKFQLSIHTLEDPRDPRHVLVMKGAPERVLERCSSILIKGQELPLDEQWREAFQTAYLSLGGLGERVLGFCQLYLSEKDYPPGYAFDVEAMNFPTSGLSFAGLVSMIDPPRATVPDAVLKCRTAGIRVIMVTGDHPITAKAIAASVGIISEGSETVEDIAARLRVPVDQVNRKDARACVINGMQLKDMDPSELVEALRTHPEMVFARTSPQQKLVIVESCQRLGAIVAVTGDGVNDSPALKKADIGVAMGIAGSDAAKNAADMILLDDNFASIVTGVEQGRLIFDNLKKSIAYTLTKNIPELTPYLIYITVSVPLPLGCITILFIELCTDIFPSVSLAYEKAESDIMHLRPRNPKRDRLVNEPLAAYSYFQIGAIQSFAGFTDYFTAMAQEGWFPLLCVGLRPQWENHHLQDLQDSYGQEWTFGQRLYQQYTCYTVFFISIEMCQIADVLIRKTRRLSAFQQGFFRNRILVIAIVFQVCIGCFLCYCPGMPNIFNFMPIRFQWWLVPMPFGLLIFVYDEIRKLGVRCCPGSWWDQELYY
T1 sequence (P18434 whole entry partner): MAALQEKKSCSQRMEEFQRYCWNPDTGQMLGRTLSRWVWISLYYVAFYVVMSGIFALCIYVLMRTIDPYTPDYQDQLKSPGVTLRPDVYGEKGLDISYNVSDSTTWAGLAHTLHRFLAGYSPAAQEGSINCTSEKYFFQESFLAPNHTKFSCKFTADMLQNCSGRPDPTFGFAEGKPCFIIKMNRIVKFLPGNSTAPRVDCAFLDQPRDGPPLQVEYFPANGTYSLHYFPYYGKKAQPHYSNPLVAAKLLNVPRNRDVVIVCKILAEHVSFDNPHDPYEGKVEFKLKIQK
Description: The porcine gastric vesicles for Porcine gastric H^+/K^+-ATPase inhibition assays were prepared from mucous membrane in fresh porcine stomachs by homogenization with a tight-fitted polytetrafluoroethylene (Teflone®) homogenizer in 0.25 M sucrose at 4° C. The crude pellet was removed with centrifugation at 20,000 g for 30 min. Then supernatant was centrifuged at 100,000 g for 30 min. The resulting pellet was re-suspended in 0.25 M sucrose, and then subjected to density gradient centrifugation at 132,000 g for 90 min. The gastric vesicles were collected from interface on 0.25 M sucrose layer containing 7% Ficoll™ PM400(Amersham Biosciences). This procedure was performed in a cold room.
Ion-leaky porcine gastric H^+/K^+-ATPase-inhibition was measured according to the modified method described in Biochemical Pharmacology, 1988, 37, 2231-2236.
The isolated vesicles were lyophilized, and then kept in deep-freezer until use. For enzyme assay, lyophilized vesicles were reconstituted with 3 mM MgSO4 containing 40 mM Bis-tris (pH 6.4 at 37° C.).
Enzyme reaction was performed incubating 5 mM KCl, 3 mM Na2ATP, 3 mM MgSO4 and 1.0 μg of reconstituted vesicles for 30 minutes at 37° C. in a final 60 μl of reaction mixture (40 mM Bis-tris, pH 6.4) with or without the test compound. Enzyme reaction was stopped by adding 10% sodium dodecyl sulphate (SDS). Released inorganic phosphate from ATP was detected by incubation with mixture of 1 part of 35 mM ammonium molybdate tetrahydrate in 15 mM Zinc acetate hydrate and 4 parts of 10% ascorbic acid (pH 5.0), resulting in phosphomolybdate, which has optical density at 750 nm.

| Structure (SMILES) | IC50 |
| --- | --- |
| Cc1nc2c(NC3CCOc4cccc(F)c43)cc(C(=O)N(C)CCO)cn2c1C (single isomer, unassigned) [Example 11-2, 8-[(5-Fluoro-3,4-dihydro-2H-chromen-4-yl)amino]-N-(2-hydroxyethyl)-N,2,3-trimethylimidazo[1,2-a]pyridine-6-carboxamide] | 53.8 nM |
| Cc1nc2c(NC3CCOc4cccc(F)c43)cc(C(=O)N(C)CCO)cn2c1C (single isomer, unassigned) [Example 11-3, 8-[(5-Fluoro-3,4-dihydro-2H-chromen-4-yl)amino]-N-(2-hydroxyethyl)-N,2,3-trimethylimidazo[1,2-a]pyridine-6-carboxamide] | 101 nM |
| Cc1nc2c(NC3CCOc4ccc(F)cc43)cc(C(=O)N(C)C)cn2c1C (single isomer, unassigned) [Example 12-2, 8-[(6-Fluoro-3,4-dihydro-2H-chromen-4-yl)amino]-N,N,2,3-tetramethylimidazo[1,2-a]pyridine-6-carboxamide] | 197 nM |
| Cc1nc2c(NC3CCOc4ccc(F)cc43)cc(C(=O)N(C)C)cn2c1C (single isomer, unassigned) [Example 12-3, 8-[(6-Fluoro-3,4-dihydro-2H-chromen-4-yl)amino]-N,N,2,3-tetramethylimidazo[1,2-a]pyridine-6-carboxamide] | 81.1 nM |
| Cc1nc2c(NC3CCOc4ccc(F)cc43)cc(C(=O)N(C)CCO)cn2c1C (single isomer, unassigned) [Example 13-2, 8-[(6-Fluoro-3,4-dihydro-2H-chromen-4-yl)amino]-N-(2-hydroxyethyl)-N,2,3-trimethylimidazol[1,2-a]pyridine-6-carboxamide] | 1100 nM |
| Cc1nc2c(NC3CCOc4ccc(F)cc43)cc(C(=O)N(C)CCO)cn2c1C (single isomer, unassigned) [Example 13-3, 8-[(6-Fluoro-3,4-dihydro-2H-chromen-4-yl)amino]-N-(2-hydroxyethyl)-N,2,3-trimethylimidazol[1,2-a]pyridine-6-carboxamide] | 170 nM |
| Cc1nc2c(NC3CCOc4c(F)cccc43)cc(C(=O)N(C)C)cn2c1C (single isomer, unassigned) [Example 14-2, 8-[(8-Fluoro-3,4-dihydro-2H-chromen-4-yl)amino]-N,N,2,3-tetramethylimidazo[1,2-a]pyridine-6-carboxamide] | 120 nM |
| Cc1nc2c(NC3CCOc4c(F)cccc43)cc(C(=O)N(C)C)cn2c1C (single isomer, unassigned) [Example 14-3, 8-[(8-Fluoro-3,4-dihydro-2H-chromen-4-yl)amino]-N,N,2,3-tetramethylimidazo[1,2-a]pyridine-6-carboxamide] | 170 nM |
| Cc1nc2c(NC3CCOc4c(F)cccc43)cc(C(=O)N(C)CCO)cn2c1C (single isomer, unassigned) [Example 15-2, 8-[(8-Fluoro-3,4-dihydro-2H-chromen-4-yl)amino]-N-(2-hydroxyethyl)-N,2,3-trimethylimidazol[1,2-a]pyridine-6-carboxamide] | 230 nM |
| Cc1nc2c(NC3CCOc4c(F)cccc43)cc(C(=O)N(C)CCO)cn2c1C (single isomer, unassigned) [Example 15-3, 8-[(8-Fluoro-3,4-dihydro-2H-chromen-4-yl)amino]-N-(2-hydroxyethyl)-N,2,3-trimethylimidazol[1,2-a]pyridine-6-carboxamide] | 370 nM |
| Cc1ccc2c(c1)OCCC2Nc1cc(C(=O)N(C)CCO)cn2c(C)c(C)nc12 (single isomer, unassigned) [Example 16-2, N-(2-Hydroxyethyl)-N,2,3-trimethyl-8-[(7-methyl-3,4-dihydro-2H-chromen-4-yl)amino]imidazo[1,2-a]pyridine-6-carboxamide] | 100 nM |
| Cc1ccc2c(c1)OCCC2Nc1cc(C(=O)N(C)CCO)cn2c(C)c(C)nc12 (single isomer, unassigned) [Example 16-3, N-(2-Hydroxyethyl)-N,2,3-trimethyl-8-[(7-methyl-3,4-dihydro-2H-chromen-4-yl)amino]imidazo[1,2-a]pyridine-6-carboxamide] | 180 nM |
| Cc1cccc2c1C(Nc1cc(C(=O)N(C)C)cn3c(C)c(C)nc13)CCO2 (single isomer, unassigned) [Example 17-2, N,N,2,3-Tetramethyl-8-[(5-methyl-3,4-dihydro-2H-chromen-4-yl)amino]imidazo[1,2-a]pyridine-6-carboxamide] | 43 nM |
| Cc1cccc2c1C(Nc1cc(C(=O)N(C)C)cn3c(C)c(C)nc13)CCO2 (single isomer, unassigned) [Example 17-3, N,N,2,3-Tetramethyl-8-[(5-methyl-3,4-dihydro-2H-chromen-4-yl)amino]imidazo[1,2-a]pyridine-6-carboxamide] | 91 nM |
| Cc1nc2c(NC3CCOc4cccc(Cl)c43)cc(C(=O)N(C)C)cn2c1C (single isomer, unassigned) [Example 18-2, 8-[(5-Chloro-3,4-dihydro-2H-chromen-4-yl)amino]-N,N,2,3-tetramethylimidazo[1,2-a]pyridine-6-carboxamide] | 300 nM |
| Cc1nc2c(NC3CCOc4cccc(Cl)c43)cc(C(=O)N(C)C)cn2c1C (single isomer, unassigned) [Example 18-3, 8-[(5-Chloro-3,4-dihydro-2H-chromen-4-yl)amino]-N,N,2,3-tetramethylimidazo[1,2-a]pyridine-6-carboxamide] | 240 nM |
| Cc1nc2c(NC3CCOc4cccc(Cl)c43)cc(C(=O)N(C)CCO)cn2c1C (single isomer, unassigned) [Example 19-2, 8-[(5-Chloro-3,4-dihydro-2H-chromen-4-yl)amino]-N-(2-hydroxyethyl)-N,2,3-trimethylimidazo[1,2-a]pyridine-6-carboxamide] | 600 nM |
| Cc1nc2c(NC3CCOc4cccc(Cl)c43)cc(C(=O)N(C)CCO)cn2c1C (single isomer, unassigned) [Example 19-3, 8-[(5-Chloro-3,4-dihydro-2H-chromen-4-yl)amino]-N-(2-hydroxyethyl)-N,2,3-trimethylimidazo[1,2-a]pyridine-6-carboxamide] | 500 nM |
| Cc1nc2c(NC3CCOc4ccccc43)cc(C(=O)N(C)C)cn2c1C (single isomer, unassigned; (+)) [Example 1-3, (+)-8-(3,4-Dihydro-2H-chromen-4-ylamino)-N,N,2,3-tetramethylimidazo[1,2-a]pyridine-6-carboxamide] | 27.8 nM |
| Cc1nc2c(NC3CCOc4ccccc43)cc(C(=O)N(C)CCO)cn2c1C (single isomer, unassigned; (+)) [Example 2-3, (+)-8-(3,4-Dihydro-2H-chromen-4-ylamino)-N-(2-hydroxyethyl)-N,2,3-trimethylimidazo[1,2-a]pyridine-6-carboxamide] | 64 nM |
| Cc1nc2c(NC3COCc4ccccc43)cc(C(=O)N(C)C)cn2c1C (single isomer, unassigned; (+)) [Example 3-3, (+)-8-(3,4-Dihydro-1H-isochromen-4-ylamino)-N,N,2,3-tetramethylimidazo[1,2-a]pyridine-6-carboxamide] | 67.6 nM |
| Cc1nc2c(NC3COCc4ccccc43)cc(C(=O)N(C)CCO)cn2c1C (single isomer, unassigned; (+)) [Example 4-3, (+)-8-(3,4-Dihydro-1H-isochromen-4-ylamino)-N-(2-hydroxyethyl)-N,2,3-trimethylimidazo[1,2-a]pyridine-6-carboxamide] | 112 nM |
| Cc1nc2c(NC3CCOc4ccccc43)cc(C(=O)N(C)C)cn2c1C (single isomer, unassigned; (-)) [Example 1-2, (−)-8-(3,4-Dihydro-2H-chromen-4-ylamino)-N,N,2,3-tetramethylimidazo[1,2-a]pyridine-6-carboxamide] | 61.9 nM |
| Cc1nc2c(NC3CCOc4ccccc43)cc(C(=O)N(C)CCO)cn2c1C (single isomer, unassigned; (-)) [Example 2-2, (−)-8-(3,4-Dihydro-2H-chromen-4-ylamino)-N-(2-hydroxyethyl)-N,2,3-trimethylimidazo[1.2-a]pyridine-6-carboxamide] | 81.1 nM |
| Cc1nc2c(NC3COCc4ccccc43)cc(C(=O)N(C)C)cn2c1C (single isomer, unassigned; (-)) [Example 3-2, (−)-8-(3,4-Dihydro-1H-isochromen-4-ylamino)-N,N,2,3-tetramethylimidazo[1,2-a]pyridine-6-carboxamide] | 125 nM |
| Cc1nc2c(NC3COCc4ccccc43)cc(C(=O)N(C)CCO)cn2c1C (single isomer, unassigned; (-)) [Example 4-2, (−)-8-(3,4-Dihydro-1H-isochromen-4-ylamino)-N-(2-hydroxyethyl)-N,2,3-trimethylimidazo[1,2-a]pyridine-6-carboxamide] | 273 nM |
| Cc1cccc2c1C(Nc1cc(C(=O)N(C)CCO)cn3c(C)c(C)nc13)CCO2 (single isomer, unassigned; (-)) [Example 5-2, (−)-N-(2-Hydroxyethyl)-N,2,3-trimethyl-8-[(5-methyl-3,4-dihydro-2H-chromen-4-yl)amino]imidazo[1,2-a]pyridine-6-carboxamide] | 86.2 nM |
